Test results from patent US20140031283A1, “ANTICANCER FUSION PROTEIN” (ADAMED SP. Z O.O., priority 2011, published 2014).
Several values for one entry are separate records, joined by “and”; a condition that tells them apart may be missing. Equal values may be shown once. Read-outs that look alike come from different tables or passages of the source. Values belong to the molecule of their own block, whether it stands above or below them.

Key:
A549 = assay: MTT cytotoxicity test, A549 (human lung cancer); type: cell-based
Source text: MTT assay is a colorimetric assay used to measure proliferation, viability and cytotoxicity of cells. It consists in decomposition of a yellow tetrazolium salt MTT (4,5-dimethyl-2-thiazolyl)-2,5-diphenyltetrazolium bromide) to the water-insoluble purple dye formazan by mitochondrial enzyme succinate-tetrazolium reductase 1. MTT reduction occurs only in living cells. Data analysis consists in determining IC50 concentration of the protein (in ng/ml), at which the 50% reduction in the number of cells occurs in the population treated compared to control cells. Results were analyzed using GraphPad Prism 5.0 software. The test was performed according to the literature descriptions (Cells, J E, (1998). Cell Biology, a Laboratory Handbook, second edition, Academic Press, San Diego; Yang, Y., Koh, L W, Tsai, J H., (2004); Involvement of viral and chemical factors with oral cancer in Taiwan, Jpn J Clin Oncol, 34 (4), 176-183). Cell culture medium was diluted to a defined density (10^4-10^5 cells per 100 μl). Then 100 μl of appropriately diluted cell suspension was applied to a 96-well plate in triplicates. Thus prepared cells were incubated for 24 h at 37° C. in 5% or 10% CO2, depending on the medium used, and then to the cells (in 100 μl of medium) further 100 μl of the medium containing various concentrations of tested proteins were added. In the case of combination hTRAIL114-281 and p21WAF effector protein, 100 μl of the medium containing mixture of hTRAIL114-281 and p21WAF effector protein in molar ratio 1:1 was added. After incubation of the cells with tested proteins over the period of next 72 hours, which is equivalent to 3-4 times of cell division, the medium with the test protein was added with […] of MTT working solution [5 mg/ml], and incubation was continued for 3 h at 37° C. in 5% CO2. Then the medium with MTT solution was removed, and formazan crystals were dissolved by adding 100 μl of DMSO. After stirring, the absorbance was measured at 570 nm (reference filter 690 nm). […]

Colo 205 = assay: MTT cytotoxicity test, Colo 205 (human colorectal cancer); type: cell-based
Source text: (§1) MTT assay is a colorimetric assay used to measure proliferation, viability and cytotoxicity of cells. It consists in decomposition of a yellow tetrazolium salt MTT (4,5-dimethyl-2-thiazolyl)-2,5-diphenyltetrazolium bromide) to the water-insoluble purple dye formazan by mitochondrial enzyme succinate-tetrazolium reductase 1. MTT reduction occurs only in living cells. Data analysis consists in determining IC50 concentration of the protein (in ng/ml), at which the 50% reduction in the number of cells occurs in the population treated compared to control cells. Results were analyzed using GraphPad Prism 5.0 software. The test was performed according to the literature descriptions (Cells, J E, (1998). Cell Biology, a Laboratory Handbook, second edition, Academic Press, San Diego; Yang, Y., Koh, L W, Tsai, J H., (2004); Involvement of viral and chemical factors with oral cancer in Taiwan, Jpn J Clin Oncol, 34 (4), 176-183). Cell culture medium was diluted to a defined density (10^4-10^5 cells per 100 μl). Then 100 μl of appropriately diluted cell suspension was applied to a 96-well plate in triplicates. […] After stirring, the absorbance was measured at 570 nm (reference filter 690 nm). […]

UM-UC-3 = assay: MTT cytotoxicity test, UM-UC-3 (human bladder cancer); type: cell-based
Source text: as §1

SW780 = assay: MTT cytotoxicity test, SW780 (human bladder cancer); type: cell-based
Source text: as §1

BxPC-3 = assay: MTT cytotoxicity test, BxPC-3 (human pancreatic cancer); type: cell-based
Source text: as §1

NIH: OVCAR-3 = assay: MTT cytotoxicity test, NIH: OVCAR-3 (human ovarian cancer); type: cell-based
Source text: as §1

HT144 = assay: MTT cytotoxicity test, HT144 (human melanoma cells); type: cell-based
Source text: as §1

MES-SA/Dx5 = assay: MTT cytotoxicity test, MES-SA/Dx5 (multidrug-resistant human uterine sarcoma); type: cell-based; details: Table 4, mean/SD part
Source text: as §1

SK-MES-1 = assay: MTT cytotoxicity test, SK-MES-1 (human lung cancer); type: cell-based; details: Table 4, mean/SD part
Source text: as §1

Panc-1 = assay: MTT cytotoxicity test, Panc-1 (human pancreatic cancer); type: cell-based; details: continuous incubation over 72 h, test MTT
Source text: as §1

Panc03.27 = assay: MTT cytotoxicity test, Panc03.27 (human pancreatic cancer); type: cell-based; details: continuous incubation over 72 h
Source text: as §1

PLC/PRF/5 = assay: MTT cytotoxicity test, PLC/PRF/5 (human liver hepatoma); type: cell-based; details: continuous incubation over 72 h, test MTT
Source text: as §1

LNCaP = assay: MTT cytotoxicity test, LNCaP (human prostate cancer); type: cell-based; details: Table 4, mean/SD part
Source text: as §1

SK-Hep-1 = assay: MTT cytotoxicity test, SK-Hep-1 (human liver hepatoma); type: cell-based; details: continuous incubation over 72 h
Source text: as §1

A498 = assay: MTT cytotoxicity test, A498 (human kidney cancer); type: cell-based; details: continuous incubation over 72 h
Source text: as §1

HT1080 = assay: MTT cytotoxicity test, HT1080 (human fibrosarcoma); type: cell-based; details: continuous incubation over 72 h
Source text: as §1

Jurkat A3 = assay: EZ4U cytotoxicity test, Jurkat A3 (human leukaemia); type: cell-based; details: continuous incubation over 72 h; heading prints test MTT
Method: EZ4U (Biomedica) test was used for testing cytotoxic activity of the proteins in nonadherent cell lines. The test is a modification of the MTT method, wherein formazan formed in the reduction of tetrazolium salt is water-soluble. Cell viability study was carried out after continuous 72-hour incubation of the cells with protein (seven concentrations of protein, each in triplicates). On this basis IC5O values were determined (as an average of two independent experiments) using the GraphPad Prism 5 software. Control cells were incubated with the solvent only.
The results of in vitro cytotoxicity tests are summarized as IC50 values (ng/ml), which corresponds to the protein concentration at which the cytotoxic effect of fusion proteins is observed at the level of 50% with respect to control cells treated only with solvent. Each experiment represents the average value of at least two independent experiments performed in triplicates. As a criterion of lack of activity of protein preparations the IC50 limit of 2000 ng/ml was adopted.

HT-29 = assay: MTT cytotoxicity test, HT-29 (human colorectal cancer); type: cell-based; details: continuous incubation over 72 h, test MTT
Source text: as §1

DU-145 = assay: MTT cytotoxicity test, DU-145 (human prostate cancer); type: cell-based; details: continuous incubation over 72 h
Source text: as §1

MCF-7 = assay: MTT cytotoxicity test, MCF-7 (human breast cancer); type: cell-based; details: continuous incubation over 72 h
Source text: as §1

MDA-MB-231 = assay: MTT cytotoxicity test, MDA-MB-231 (human breast cancer); type: cell-based; details: continuous incubation over 72 h, test MTT
Source text: as §1

MDA-MB-435s = assay: MTT cytotoxicity test, MDA-MB-435s (human breast cancer); type: cell-based; details: continuous incubation over 72 h
Source text: as §1

SW620 = assay: MTT cytotoxicity test, SW620 (human colorectal cancer); type: cell-based; details: continuous incubation over 72 h, test MTT
Source text: as §1

SK-OV-3 = assay: MTT cytotoxicity test, SK-OV-3 (human ovarian cancer); type: cell-based; details: continuous incubation over 72 h
Source text: as §1

HepG2 = assay: MTT cytotoxicity test, HepG2 (human liver hepatoma); type: cell-based; details: continuous incubation over 72 h, test MTT
Source text: as §1

ACHN = assay: MTT cytotoxicity test, ACHN (human kidney cancer); type: cell-based; details: continuous incubation over 72 h
Source text: as §1

CAKI 1 = assay: MTT cytotoxicity test, CAKI 1 (human kidney cancer); type: cell-based; details: continuous incubation over 72 h
Source text: as §1

CAKI 2 = assay: MTT cytotoxicity test, CAKI 2 (human kidney cancer); type: cell-based; details: continuous incubation over 72 h
Source text: as §1

[1] = continuous incubation over 72 h, test MTT

Method for NCI-H460: Data analysis consists in determining IC50 concentration of the protein (in ng/ml), at which the 50% reduction in the number of cells occurs in the population treated compared to control cells. Results were analyzed using GraphPad Prism 5.0 software. […] Cell culture medium was diluted to a defined density (10^4-10^5 cells per 100 μl). Then 100 μl of appropriately diluted cell suspension was applied to a 96-well plate in triplicates. Thus prepared cells were incubated for 24 h at 37° C. in 5% or 10% CO2, depending on the medium used, and then to the cells (in 100 μl of medium) further 100 μl of the medium containing various concentrations of tested proteins were added. […] After incubation of the cells with tested proteins over the period of next 72 hours, which is equivalent to 3-4 times of cell division, the medium with the test protein was added with 20 ml of MTT working solution [5 mg/ml], and incubation was continued for 3 h at 37° C. in 5% CO2. Then the medium with MTT solution was removed, and formazan crystals were dissolved by adding 100 μl of DMSO. After stirring, the absorbance was measured at 570 nm (reference filter 690 nm).

NCI-H460 IC50 (NCI-H460; 72 h): >1000 µg/mL
HCT116 IC50 (HCT-116; 72 h): >1000 µg/mL
Molecule: CC[C@H](C)[C@H](NC(=O)[C@H](CC(C)C)NC(=O)[C@H](CCCNC(=N)N)NC(=O)[C@H](CCCNC(=N)N)NC(=O)[C@H](CCCCN)NC(=O)[C@H](CO)NC(=O)[C@H](Cc1c[nH]cn1)NC(=O)[C@H](Cc1ccc(O)cc1)NC(=O)[C@H](Cc1ccccc1)NC(=O)[C@H](CC(=O)O)NC(=O)[C@@H](NC(=O)[C@H](C)NC(=O)[C@H](CO)NC(=O)[C@@H](NC(=O)[C@H](CCC(N)=O)NC(=O)[C@H](CCCNC(=N)N)NC(=O)[C@H](CCCNC(=N)N)NC(=O)[C@@H](N)CCCCN)[C@@H](C)O)[C@@H](C)O)C(=O)N[C@@H](Cc1ccccc1)C(=O)N[C@@H](CO)C(=O)O [peptide derived from p21WAF]
A549 IC50 (A549; 72 h): >1000 µg/mL

NCI-H460 IC50 (NCI-H460; [1]): 0.4382 µg/mL
HCT116 mean (IC50) (HCT-116; Table 4, mean/SD part): 7558 ng/mL
Molecule: rhTRAIL 95-281
COLO 205 mean (IC50) (Colo 205; Table 4, mean/SD part): 24.90 ng/mL
UM-UC-3 mean (IC50) (UM-UC-3; Table 4, mean/SD part): 2242 ng/mL and 2241 ng/mL
SW780 mean (IC50) (SW780; Table 4, mean/SD part): 120.00 ng/mL and 120 ng/mL
BxPC3 mean (IC50) (BxPC-3; Table 4, mean/SD part): 64.710 ng/mL
OVCAR-3 mean (IC50) (NIH: OVCAR-3; Table 4, mean/SD part): 963 ng/mL
HT 144 mean (IC50) (HT144; Table 4, mean/SD part): 1733.5 ng/mL
MES-SA/Dx5 mean (IC50) (MES-SA/Dx5): 29.15 ng/mL
SK-MES-1 mean (IC50) (SK-MES-1): 33.60 ng/mL
Panc-1 IC50 (Panc-1): >2000 ng/mL
Panc03.27 IC50 (Panc03.27): 315 ng/mL
PLC/PRF/5 IC50 (PLC/PRF/5): >2000 ng/mL
LNCaP mean (IC50) (LNCaP): 2051.50 ng/mL
SK Hep-1 IC50 (SK-Hep-1): >2000 ng/mL
A498 IC50 (A498): 1611 ng/mL
HT1080 IC50 (HT1080): >2000 ng/mL
JURKAT A3 IC50 (Jurkat A3): >2000 ng/mL
NCI-H460 mean (IC50) (NCI-H460; Table 4, mean/SD part): 5888.5 ng/mL and 5888 ng/mL and 5888.50 ng/mL

HCT116 IC50 (HCT-116; [1]): >2 µg/mL
Molecule: TRAIL 95-281
COLO205 IC50 (Colo 205; [1]): 59.02 ng/mL
HT29 IC50 (HT-29): >2000 ng/mL
DU145 IC50 (DU-145): >2000 ng/mL
MCF 7 IC50 (MCF-7): >2000 ng/mL
MDA-MB-231 IC50 (MDA-MB-231): >2000 ng/mL
MDA-MB-435s IC50 (MDA-MB-435s): >2000 ng/mL
UM-UC-3 IC50 (UM-UC-3; [1]): >2000 ng/mL
SW780 IC50 (SW780; [1]): 120 ng/mL
SW620 IC50 (SW620): >2000 ng/mL
BxPC3 IC50 (BxPC-3; [1]): 60.61 ng/mL
SK-OV-3 IC50 (SK-OV-3): >2000 ng/mL
OV-CAR-3 IC50 (NIH: OVCAR-3; [1]): 963 ng/mL
HepG2 IC50 (HepG2): >2000 ng/mL
ACHN IC50 (ACHN): >2000 ng/mL
CAKI 1 IC50 (CAKI 1): 395.3 ng/mL
CAKI 2 IC50 (CAKI 2): >2000 ng/mL
HT144 IC50 (HT144; [1]): 34.1 ng/mL
A549 IC50 (A549; [1]): >2 µg/mL
